Laboratory results published in ChEMBL document CHEMBL1201862, “PubChem BioAssay data set” (2004).
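Where inhibition never reached the appropriate level, the endpoint shown equals the highest concentration tested. Otherwise, values were interpolated linearly from a five-concentration, 48-hour dose response in 96-well plates. Abbreviation: GI50, concentration required for 50% inhibition of growth.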 Active and inactive are the calls of the source. Rule as the data show it: active = GI50 up to about 1.1 µM and inactive = higher.

How the values were obtained:
Experiment in all cases: NCI tumour cell line growth inhibition, 48 h
ACHN = tested on: ACHN
SW-620 = tested on: SW-620
NCI-H522 = tested on: NCI-H522
SK-MEL-5 = tested on: SK-MEL-5
HCT-15 = tested on: HCT-15
UO-31 = tested on: UO-31
EKVX = tested on: EKVX
HT-29 = tested on: HT-29
RPMI-8226 = tested on: RPMI-8226
SF-268 = tested on: SF-268
PC-3 = tested on: PC-3
A498 = tested on: A498
BT-549 = tested on: BT-549
RXF 393 = tested on: RXF 393
MOLT-4 = tested on: MOLT-4
Malme-3M = tested on: Malme-3M
HCC 2998 = tested on: HCC 2998
HL-60 = tested on: HL-60
MCF7 = tested on: MCF7
NCI-H460 = tested on: NCI-H460

Compound	GI50 (ACHN)	GI50 (SW-620)	GI50 (NCI-H522)	GI50 (SK-MEL-5)	GI50 (HCT-15)	GI50 (UO-31)	GI50 (EKVX)	GI50 (HT-29)	GI50 (RPMI-8226)	GI50 (SF-268)	GI50 (PC-3)	GI50 (A498)	GI50 (BT-549)	GI50 (RXF 393)	GI50 (MOLT-4)	GI50 (Malme-3M)	GI50 (HCC 2998)	GI50 (HL-60)	GI50 (MCF7)	GI50 (NCI-H460)
COc1ccccc1/N=N/c1c(O)c(S(=O)(=O)O)cc2cc(S(=O)(=O)O)ccc12	> 100 µM (inactive)	> 100 µM (inactive)	> 100 µM (inactive)	> 100 µM (inactive)	> 100 µM	> 100 µM (inactive)	> 100 µM (inactive)	> 100 µM (inactive)	> 100 µM (inactive)	> 100 µM (inactive)	> 100 µM (inactive)	> 100 µM (inactive)	> 100 µM (inactive)	> 100 µM (inactive)	> 100 µM (inactive)	> 100 µM (inactive)	–	–	–	–
COc1ccc(C=O)cc1Oc1ccc(C[C@H]2c3c(cc(OC)c4c3Oc3cc5c(cc3O4)CCN(C)C5=O)CCN2C)cc1	8.43 µM (inactive)	12.1 µM (inactive)	9.44 µM (inactive)	7.33 µM (inactive)	10.1 µM	7.93 µM (inactive)	9.4 µM (inactive)	7.52 µM (inactive)	5.04 µM (inactive)	10.3 µM (inactive)	8.75 µM (inactive)	20.1 µM (inactive)	–	3.59 µM (inactive)	9.95 µM (inactive)	10.4 µM (inactive)	8.28 µM (inactive)	8.85 µM (inactive)	7.66 µM (inactive)	9.04 µM (inactive)
c1ccc(Cc2nc(Cc3n[nH]c(Cc4ccccc4)n3)n[nH]2)cc1	> 100 µM (inactive)	> 100 µM (inactive)	> 100 µM (inactive)	> 100 µM (inactive)	> 100 µM	> 100 µM (inactive)	> 100 µM (inactive)	> 100 µM (inactive)	> 100 µM (inactive)	> 100 µM (inactive)	> 100 µM (inactive)	–	> 100 µM (inactive)	> 100 µM (inactive)	> 100 µM (inactive)	–	> 100 µM (inactive)	–	> 100 µM (inactive)	–
O=C1C2Nc3ccccc3SC2C(=O)N1c1ccc(Br)cc1 (configuration not stated)	17.6 µM (inactive)	45 µM (inactive)	21.7 µM (inactive)	16.2 µM (inactive)	78.7 µM	18.4 µM (inactive)	23.4 µM (inactive)	36.1 µM (inactive)	13.1 µM (inactive)	73.1 µM (inactive)	–	26 µM (inactive)	–	18.2 µM (inactive)	25.4 µM (inactive)	27.2 µM (inactive)	45.8 µM (inactive)	> 10 µM (inactive)	–	47 µM (inactive)
COC(=O)C(=O)C(C(=O)C(=O)Nc1ccc(C)cc1C)c1nc2ccc(Cl)cc2nc1O (configuration not stated)	> 100 µM (inactive)	> 100 µM (inactive)	> 100 µM (inactive)	> 100 µM (inactive)	> 100 µM	47.6 µM (inactive)	34.6 µM (inactive)	> 100 µM (inactive)	–	> 100 µM (inactive)	> 100 µM (inactive)	–	> 100 µM (inactive)	> 100 µM (inactive)	> 100 µM (inactive)	–	> 100 µM (inactive)	78 µM (inactive)	> 100 µM (inactive)	> 100 µM (inactive)
CC1(C)CCOC(=O)C(Cl)CC1Cl (configuration not stated)	> 100 µM (inactive)	> 100 µM (inactive)	> 100 µM (inactive)	> 100 µM (inactive)	> 100 µM	–	> 100 µM (inactive)	> 100 µM (inactive)	–	> 100 µM (inactive)	> 100 µM (inactive)	> 100 µM (inactive)	–	> 100 µM (inactive)	> 100 µM (inactive)	> 100 µM (inactive)	> 100 µM (inactive)	–	> 100 µM (inactive)	> 100 µM (inactive)
C=C1C2C[C@@H]3O[C@H]4C[C@H]5O[C@@]6(C[C@@H]7O[C@]8(C[C@H](C)[C@@H]9O[C@@H]%10CC(C=O)O[C@@H]%10C[C@@H]9O8)C[C@H](C)[C@@H]7O6)C[C@H]5O[C@H]4[C@H](C)[C@H]3OC(=O)C[C@H]3CC[C@@H]4OC5[C@H]6O[C@]7(CC[C@H]8CC(=C)[C@H](CC[C@@H](C[C@H]1C)O2)O8)CC6O[C@@H]5[C@@H](O7)[C@H]4O3 (some centres not stated)	< 0.0001 µM (active)	< 0.0001 µM (active)	< 0.0001 µM (active)	< 0.0001 µM (active)	< 0.0001 µM	< 0.0001 µM (active)	< 0.0001 µM (active)	–	< 0.0001 µM (active)	< 0.0001 µM (active)	< 0.0001 µM (active)	–	< 0.0001 µM (active)	< 0.0001 µM (active)	< 0.0001 µM (active)	–	< 0.0001 µM (active)	–	< 0.0001 µM (active)	< 0.0001 µM (active)
CC(=O)Nc1ccc(C(=O)NN2C(=O)CSC2c2ccc([N+](=O)[O-])cc2)cc1 (configuration not stated)	> 100 µM (inactive)	> 100 µM (inactive)	–	> 100 µM (inactive)	> 100 µM	> 100 µM (inactive)	> 100 µM (inactive)	> 100 µM (inactive)	> 100 µM (inactive)	79.8 µM (inactive)	–	> 100 µM (inactive)	–	> 100 µM (inactive)	> 100 µM (inactive)	–	> 100 µM (inactive)	–	> 100 µM (inactive)	> 100 µM (inactive)
